What all share (assay type): biochemical
For one test, the target named is T1, mouse 11β-HSD1 (Mus musculus, UniProt P50172).
T1 construct: expressed in transfected cells
Put plainly: Enzyme inhibitory activity assay, lysate of CHO-K1 cells stably expressing mouse 11β-HSD1, cortisol by competitive ELISA. To be noted: Table 2; cell lysate, 100 nmol/L cortisone, NADPH, 37° C. 1 hour; read-out: in vitro assay (IC50 uM) m HSD1. How it is done:
(§1) 1. Human 11β-HSD1-, Human 11β-HSD2- and Mouse 11β-HSD1-Gene Clonings and Establishment of Stably Expressing Cells
(§2) Human 11β-HSD1- and human 11β-HSD2-expressing vectors were transfected into human kidney-derived cell line, HEK293 cells, using a transfection reagent, jet PEI (Funakoshi). Mouse 11β-HSD1 was transfected to Chinese hamster ovary-derived cell line, CHO-K1 cells. Selection was conducted with 200-400 μg/mL of zeocine (Invitrogen) to provide stably expressing-cell clones. The stably expressing cells were suspended in buffer solution A (20 mmol/L Tris-HCl, pH 7.4, 250 mmol/L sucrose, 1 mmol/L EGTA, 1 mmol/L EDTA, 1 mmol/L MgCl2), sonicated, and then stored at −80° C.
(§3) 2. Assay of Enzyme Inhibitory Activity
(§4) An enzymatic reaction was conducted using a polystyrene 96-well plate. Each well was added with 1 μL of a test agent dissolved in DMSO and then diluted (0.003 to 3 mmol/L), and further added with 10 μL of cell lysate diluted to a concentration of 0.1 mg/mL to 0.4 mg/mL. Next, 90 μL of buffer solution A containing substrate (100 nmol/L cortisone or cortisol) and coenzyme (400 μmol/L NADPH or NAD+) was added and the mixture was incubated at 37° C. for 1 hour. The enzymatic reaction was stopped by treating at 95° C. for 3 minutes. Cortisol that was present in the reaction solution was determined by a competitive ELISA shown below.
(§5) Anti-rabbit IgG antibody (Chemi-con) diluted to 2 μg/mL with carbonate buffer solution (pH 9.6) was added in 100 μL each to a 96-well immuno plate (Nunc) and immobilized by an incubation at 4° C. overnight. […] After washed three times with buffer solution B containing 0.05% Tween 20, the plates were allowed to develop color by adding 100 μL, of color reagent, TMB (Moss). The color reaction was stopped by 25 μL of 1 mol/L sulfuric acid and the absorbance was determined at 450 nm with a microplate reader (Molecular Device, VersaMax).

In a further test the target is T2, human 11β-HSD1 (Homo sapiens, UniProt P28845).
T2 construct: expressed in transfected cells
T2 sequence (P28845 whole entry): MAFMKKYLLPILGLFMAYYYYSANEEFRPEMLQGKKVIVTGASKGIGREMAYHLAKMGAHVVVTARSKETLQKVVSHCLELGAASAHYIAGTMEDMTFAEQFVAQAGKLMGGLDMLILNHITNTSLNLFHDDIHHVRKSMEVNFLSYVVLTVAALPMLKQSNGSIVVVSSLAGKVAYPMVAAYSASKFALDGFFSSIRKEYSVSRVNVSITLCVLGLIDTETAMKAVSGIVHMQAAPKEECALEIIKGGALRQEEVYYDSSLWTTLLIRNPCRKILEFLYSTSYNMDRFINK
Put plainly: Enzyme inhibitory activity assay, lysate of HEK293 cells stably expressing human 11β-HSD1, cortisol by competitive ELISA. Particulars: Table 1; cell lysate, 100 nmol/L cortisone, NADPH, 37° C. 1 hour; read-out: in vitro assay (IC50 uM) h HSD1. As for the experimental part:
as §1, §2, §3, §4, §5
Background: ELISA stands for enzyme-linked immunosorbent assay.

The target in a further test is T3, human 11β-HSD2 (Homo sapiens, UniProt P80365).
T3 construct: expressed in transfected cells
T3 sequence (P80365 1-405): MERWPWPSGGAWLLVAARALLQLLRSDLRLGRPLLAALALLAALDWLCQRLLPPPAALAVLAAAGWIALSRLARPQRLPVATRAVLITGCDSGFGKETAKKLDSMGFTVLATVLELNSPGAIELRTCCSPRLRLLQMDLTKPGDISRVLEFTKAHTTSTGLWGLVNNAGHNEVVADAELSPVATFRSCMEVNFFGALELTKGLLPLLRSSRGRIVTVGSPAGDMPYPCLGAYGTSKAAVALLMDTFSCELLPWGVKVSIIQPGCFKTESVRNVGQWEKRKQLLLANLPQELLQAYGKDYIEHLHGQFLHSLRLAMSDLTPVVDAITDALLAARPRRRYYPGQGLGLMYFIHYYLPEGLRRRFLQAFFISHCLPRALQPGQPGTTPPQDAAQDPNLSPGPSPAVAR
Put plainly: Enzyme inhibitory activity assay, lysate of HEK293 cells stably expressing human 11β-HSD2, cortisol by competitive ELISA. To be noted: Table 1; cell lysate, 100 nmol/L cortisol, NAD+, 37° C. 1 hour; read-out: in vitro assay (IC50 uM) h HSD2. As for the experimental part:
as §1
Human 11β-HSD1-, human 11β-HSD2-, and mouse 11β-HSD1-gene clonings were conducted using as a template a reverse transcription product of human-liver RNA, human-kidney RNA (CELL APPLICATIONS), and mouse-kidney RNA respectively, by means of PCR cloning with reference to nucleotide sequences of Genbank Accession Nos. NM_005525, NM_000196, and NM_008288. The obtained PCR products of about 0.9 kbp, 1.2 kbp, and 0.9 kbp were subcloned into an expression vector pcDNA3.1+/Zeo (Invitrogen).
as §2, §3, §4
Anti-rabbit IgG antibody (Chemi-con) diluted to 2 μg/mL with carbonate buffer solution (pH 9.6) was added in 100 μL each to a 96-well immuno plate (Nunc) and immobilized by an incubation at 4° C. overnight. 50 μL of enzymatic reaction solution was put onto the plates, and further, anti-cortisol antibody (Cosmo Bio) and HRP-labeled cortisol (Cosmo Bio), diluted with buffer solution B (25 mmol/L Tris-HCl pH 7.4, 137 mmol/L NaCl, 2.68 mmol/L KCl), were added in 50 μL respectively and incubated at 4° C. overnight. After washed three times with buffer solution B containing 0.05% Tween 20, the plates were allowed to develop color by adding 100 μL, of color reagent, TMB (Moss). The color reaction was stopped by 25 μL of 1 mol/L sulfuric acid and the absorbance was determined at 450 nm with a microplate reader (Molecular Device, VersaMax).
The values of human 11β-HSD1, human 11β-HSD2, and mouse 11β-HSD1 activities were subtracted from 100, and the resultant values were regarded as the respective 11βHSD inhibition rates of example compounds. […] The comparison of human 11β-HSD1 and human 11β-HSD2 inhibiting activities is shown in Table 1, and the comparison of human 11β-HSD1 and mouse 11β-HSD1 inhibiting activities is shown in Table 2.

T1 sequence (P50172 whole entry): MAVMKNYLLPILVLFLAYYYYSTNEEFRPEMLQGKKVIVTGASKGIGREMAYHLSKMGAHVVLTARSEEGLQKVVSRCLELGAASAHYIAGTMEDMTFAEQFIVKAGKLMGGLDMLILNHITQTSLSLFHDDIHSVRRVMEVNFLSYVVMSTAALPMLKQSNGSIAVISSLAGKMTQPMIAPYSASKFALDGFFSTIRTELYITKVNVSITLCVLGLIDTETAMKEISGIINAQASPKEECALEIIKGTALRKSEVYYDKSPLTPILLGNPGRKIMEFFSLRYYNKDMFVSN

A word on the IC50: it is the midpoint of a concentration-inhibition curve. Take `CC1(C)C(=O)N(C2C3CC4CC(C3)CC2C4)C1c1ccc(Cl)cc1` (stereo not drawn) [Example 22, 1-(adamantan-2-yl)-3,3-dimethyl-4-(4-chlorophenyl)azetidin-2-one]: the IC50 on mouse 11β-HSD1 stood at 0.66 µM; on human 11β-HSD1, 0.0095 µM; on human 11β-HSD2, 15 µM.

With `CC1(C)C(=O)N(C2C3CC4CC(C3)CC2C4)C1c1ccccc1F` (stereo not drawn) [Example 39, 1-(adamantan-2-yl)-3,3-dimethyl-4-(2-fluorophenyl)azetidin-2-one], the results for the IC50 on mouse 11β-HSD1, on human 11β-HSD1 and on human 11β-HSD2 were 0.055 µM, 0.0034 µM and 3 to 30 µM, respectively.

Turning to `COc1ccccc1C1N(C2C3CC4CC(C3)CC2C4)C(=O)C1(C)C` (stereo not drawn) [Example 33, 1-(adamantan-2-yl)-3,3-dimethyl-4-(2-methoxyphenyl)azetidin-2-one], the IC50 came to 0.072 µM at mouse 11β-HSD1, 0.0067 µM at human 11β-HSD1 and 6.7 µM at human 11β-HSD2.

Regarding `CC1(C)C(=O)N(C2C3CC4CC(C3)CC2C4)C1c1ccc(F)c(Cl)c1` (stereo not drawn) [Example 29, 1-(adamantan-2-yl)-3,3-dimethyl-4-(3-chloro-4-fluorophenyl)azetidin-2-one], the IC50 at mouse 11β-HSD1 was 0.59 µM; on human 11β-HSD1 it was 0.011 µM; on human 11β-HSD2, above 30 µM.

`CC1(C)C(=O)N(C2C3CC4CC(C3)CC2C4)C1c1cccc(F)c1F` (stereo not drawn) [Example 24, 1-(adamantan-2-yl)-3,3-dimethyl-4-(2,3-difluorophenyl)azetidin-2-one]: the IC50 on mouse 11β-HSD1 was 0.1 µM; at human 11β-HSD1, 0.011 µM; at human 11β-HSD2, above 30 µM.

For the compound `CC1(C)C(=O)N(C2C3CC4CC(C3)CC2C4)C1Cc1ccccc1` (stereo not drawn) [Example 69, 4-benzyl-1-(adamantan-2-yl)-3,3-dimethylazetidin-2-one], the IC50 on mouse 11β-HSD1 turned out to be 0.0051 µM; on human 11β-HSD1, 0.02 µM; on human 11β-HSD2 it was 0.28 µM.

On to `CC1(C)C(=O)N(C2C3CC4CC(C3)CC2C4)C1c1ccccc1C(F)(F)F` (stereo not drawn) [Example 41, 1-(adamantan-2-yl)-3,3-dimethyl-4-(2-trifluoromethylphenyl)azetidin-2-one], for which the 50% inhibitory concentration (IC50) on mouse 11β-HSD1 was 0.079 µM; at human 11β-HSD1, 0.0087 µM; at human 11β-HSD2, 3 to 30 µM.

In the case of `CC1(C)C(=O)N(C2C3CC4CC(C3)CC2C4)C1c1ccc(Cl)c(Cl)c1` (stereo not drawn) [Example 26, 1-(adamantan-2-yl)-3,3-dimethyl-4-(3,4-dichlorophenyl)azetidin-2-one], the results for the IC50 at mouse 11β-HSD1, on human 11β-HSD1 and at human 11β-HSD2 were 0.46 µM, 0.013 µM and above 30 µM, respectively.

Consider `COc1ccc(C2N(C3C4CC5CC(C4)CC3C5)C(=O)C2(C)C)c(F)c1` (stereo not drawn) [Example 40, 1-(adamantan-2-yl)-3,3-dimethyl-4-(2-fluoro-4-methoxyphenyl)azetidin-2-one], for which the results for the IC50 on mouse 11β-HSD1, at human 11β-HSD1 and on human 11β-HSD2 were 0.34 µM, 0.0059 µM and above 30 µM, respectively.

For the compound `CC1(C)C(=O)N(C2C3CC4CC(C3)CC2C4)C1C1(c2ccc(Cl)cc2)CC1` (stereo not drawn) [Example 70, 4-[1-(4-chlorophenyl)cyclopropyl]-1-(adamantan-2-yl)-3,3-dimethylazetidin-2-one], the IC50 on mouse 11β-HSD1 came to 0.0078 µM; on human 11β-HSD1 it was 0.11 µM; on human 11β-HSD2 it was 4.1 µM.

Regarding `CC1(C)C(=O)N(C2C3CC4CC(C3)CC2C4)C1c1cc(F)cc(F)c1F` (stereo not drawn) [Example 35, 1-(adamantan-2-yl)-3,3-dimethyl-4-(2,3,5-trifluorophenyl)azetidin-2-one], the IC50 on mouse 11β-HSD1 was 0.61 µM; at human 11β-HSD1, 0.053 µM; on human 11β-HSD2, above 30 µM.

The values are drawn from US8236789B2, “1-adamantyl azetidin-2-one derivatives and drugs containing same” (Kowa Company, Ltd., priority 2008, dated 2012).
